In one data set the test system is Homo sapiens. In words: Mean steady-state volume of distribution (Vss) for Vardenafil following oral doses of Vardenafil. It counts as ADME, organism-based. The following applies: in vivo, dose 20 mg, dosed compound id 28, dosed compound name VARDENAFIL HYDROCHLORIDE, gender male, regimen Multiple dose, tissue Plasma.
The nature of data set [1]: Evaluation of pharmacokinetic parameters for Vardenafil evaluated following single oral administration of Vardenafil to healthy male volunteers. In kind it is ADME, organism-based. The following applies: human, in vivo, dose 20 mg, dosed compound id 28, dosed compound name VARDENAFIL HYDROCHLORIDE, gender male, regimen Single dose, tissue Plasma.

In the data set on Homo sapiens, `CCCc1nc(C)c2c(=O)nc(-c3cc(S(=O)(=O)N4CCN(CC)CC4)ccc3OCC)[nH]n12.Cl` [VARDENAFIL HYDROCHLORIDE] yielded a Vss of 208 L. In data set [1] (dietary status Fasting), the Tmax was 0.5 to 2 h. In data set [1], this compound returned a half-life of 4 to 5 h.

In general, Tmax refers to the time at which the peak concentration occurs. As usually defined, the half-life is the time in which the quantity being followed falls by half.

These data come from ChEMBL document CHEMBL3832027, “DailyMed|setid=517fbb02-8793-4647-83c7-25a91be49622 | LEVITRA - vardenafil hydrochloride tablet, film coated|PD-Rx Pharmaceuticals, Inc”.
